Source: the NIST ThermoML archive (doi:10.1016/j.jct.2016.07.005)
± gives the expanded uncertainty stated by the source.

Experiment: xn = mol fraction of the nth substance listed
Conditions: 100 kPa, Liquid; for viscosity: Concentric cylinders viscometry; for mass density: Vibrating tube method

CN1CCC[C@H]1c1cccnc1 [(-)-3-(N-methylpyrrolidino)pyridine] + CCC(C)O
Conditions	mass density [kg/m3]	viscosity [mPa·s]
293.15 K, x1 = 0.1	841.874 ± 1	3.496 ± 0.072
293.15 K, x1 = 0.2036	873.003 ± 1	3.46 ± 0.071
293.15 K, x1 = 0.3	898.284 ± 1	3.593 ± 0.074
293.15 K, x1 = 0.4	921.306 ± 1	3.845 ± 0.079
293.15 K, x1 = 0.5	941.501 ± 1	4.157 ± 0.086
293.15 K, x1 = 0.6	959.218 ± 1	4.476 ± 0.093
293.15 K, x1 = 0.6956	974.099 ± 1	4.734 ± 0.098
293.15 K, x1 = 0.8	988.293 ± 1	4.907 ± 0.1
293.15 K, x1 = 0.9	1000.07 ± 1	4.909 ± 0.1
293.15 K, x1 = 1	1010.23 ± 1	4.694 ± 0.098
298.15 K, x1 = 0.1	837.728 ± 1	2.96 ± 0.061
298.15 K, x1 = 0.2036	868.857 ± 1	2.981 ± 0.062
298.15 K, x1 = 0.3	894.137 ± 1	3.11 ± 0.064
298.15 K, x1 = 0.4	917.159 ± 1	3.319 ± 0.069
298.15 K, x1 = 0.5	937.354 ± 1	3.566 ± 0.074
298.15 K, x1 = 0.6	955.075 ± 1	3.813 ± 0.079
298.15 K, x1 = 0.6956	969.963 ± 1	4.015 ± 0.083
298.15 K, x1 = 0.8	984.171 ± 1	4.158 ± 0.087
298.15 K, x1 = 0.9	995.971 ± 1	4.179 ± 0.087
298.15 K, x1 = 1	1006.16 ± 1	4.048 ± 0.085
303.15 K, x1 = 0.1	833.532 ± 1	2.521 ± 0.052
303.15 K, x1 = 0.2036	864.676 ± 1	2.579 ± 0.053
303.15 K, x1 = 0.3	889.965 ± 1	2.704 ± 0.056
303.15 K, x1 = 0.4	912.993 ± 1	2.881 ± 0.06
303.15 K, x1 = 0.5	933.194 ± 1	3.08 ± 0.064
303.15 K, x1 = 0.6	950.921 ± 1	3.277 ± 0.068
303.15 K, x1 = 0.6956	965.82 ± 1	3.439 ± 0.072
303.15 K, x1 = 0.8	980.047 ± 1	3.558 ± 0.074
303.15 K, x1 = 0.9	991.873 ± 1	3.591 ± 0.075
303.15 K, x1 = 1	1002.1 ± 1	3.518 ± 0.074
308.15 K, x1 = 0.1	829.273 ± 1	2.162 ± 0.045
308.15 K, x1 = 0.2036	860.452 ± 1	2.244 ± 0.046
308.15 K, x1 = 0.3	885.762 ± 1	2.367 ± 0.049
308.15 K, x1 = 0.4	908.808 ± 1	2.523 ± 0.052
308.15 K, x1 = 0.5	929.021 ± 1	2.691 ± 0.056
308.15 K, x1 = 0.6	946.761 ± 1	2.853 ± 0.059
308.15 K, x1 = 0.6956	961.675 ± 1	2.987 ± 0.062
308.15 K, x1 = 0.8	975.925 ± 1	3.09 ± 0.065
308.15 K, x1 = 0.9	987.783 ± 1	3.128 ± 0.066
308.15 K, x1 = 1	998.055 ± 1	3.088 ± 0.065
313.15 K, x1 = 0.1	824.949 ± 1	1.875 ± 0.039
313.15 K, x1 = 0.2036	856.182 ± 1	1.975 ± 0.041
313.15 K, x1 = 0.3	881.53 ± 1	2.094 ± 0.043
313.15 K, x1 = 0.4	904.598 ± 1	2.232 ± 0.046
313.15 K, x1 = 0.5	924.831 ± 1	2.373 ± 0.049
313.15 K, x1 = 0.6	942.588 ± 1	2.508 ± 0.052
313.15 K, x1 = 0.6956	957.521 ± 1	2.62 ± 0.055
313.15 K, x1 = 0.8	971.798 ± 1	2.713 ± 0.057
313.15 K, x1 = 0.9	983.692 ± 1	2.761 ± 0.058
313.15 K, x1 = 1	994.014 ± 1	2.758 ± 0.058
318.15 K, x1 = 0.1	820.559 ± 1	1.627 ± 0.034
318.15 K, x1 = 0.2036	851.865 ± 1	1.734 ± 0.036
318.15 K, x1 = 0.3	877.259 ± 1	1.848 ± 0.038
318.15 K, x1 = 0.4	900.359 ± 1	1.974 ± 0.041
318.15 K, x1 = 0.5	920.616 ± 1	2.099 ± 0.044
318.15 K, x1 = 0.6	938.394 ± 1	2.214 ± 0.046
318.15 K, x1 = 0.6956	953.35 ± 1	2.308 ± 0.048
318.15 K, x1 = 0.8	967.662 ± 1	2.383 ± 0.05
318.15 K, x1 = 0.9	979.601 ± 1	2.419 ± 0.051
318.15 K, x1 = 1	989.984 ± 1	2.411 ± 0.051
323.15 K, x1 = 0.1	816.09 ± 1	1.434 ± 0.03
323.15 K, x1 = 0.2036	847.491 ± 1	1.55 ± 0.032
323.15 K, x1 = 0.3	872.943 ± 1	1.662 ± 0.035
323.15 K, x1 = 0.4	896.089 ± 1	1.778 ± 0.037
323.15 K, x1 = 0.5	916.374 ± 1	1.888 ± 0.039
323.15 K, x1 = 0.6	934.178 ± 1	1.989 ± 0.042
323.15 K, x1 = 0.6956	949.16 ± 1	2.071 ± 0.043
323.15 K, x1 = 0.8	963.511 ± 1	2.141 ± 0.045
323.15 K, x1 = 0.9	975.504 ± 1	2.183 ± 0.046
323.15 K, x1 = 1	985.962 ± 1	2.195 ± 0.046

CN1CCC[C@H]1c1cccnc1 [(-)-3-(N-methylpyrrolidino)pyridine] + CCCCO
Conditions	mass density [kg/m3]	viscosity [mPa·s]
293.15 K, x1 = 0.1	845.043 ± 1	3.049 ± 0.063
293.15 K, x1 = 0.196	874.098 ± 1	3.209 ± 0.066
293.15 K, x1 = 0.3	901.216 ± 1	3.408 ± 0.07
293.15 K, x1 = 0.3931	922.268 ± 1	3.601 ± 0.074
293.15 K, x1 = 0.5	943.285 ± 1	3.829 ± 0.079
293.15 K, x1 = 0.593	960.358 ± 1	4.027 ± 0.083
293.15 K, x1 = 0.7	975.308 ± 1	4.242 ± 0.088
293.15 K, x1 = 0.7931	987.593 ± 1	4.412 ± 0.092
293.15 K, x1 = 0.9	1000.01 ± 1	4.578 ± 0.096
293.15 K, x1 = 1	1010.23 ± 1	4.694 ± 0.098
298.15 K, x1 = 0.1	841.123 ± 1	2.692 ± 0.056
298.15 K, x1 = 0.196	870.112 ± 1	2.833 ± 0.058
298.15 K, x1 = 0.3	897.182 ± 1	2.999 ± 0.062
298.15 K, x1 = 0.3931	918.206 ± 1	3.155 ± 0.065
298.15 K, x1 = 0.5	939.205 ± 1	3.337 ± 0.069
298.15 K, x1 = 0.593	956.271 ± 1	3.494 ± 0.072
298.15 K, x1 = 0.7	971.222 ± 1	3.666 ± 0.076
298.15 K, x1 = 0.7931	983.509 ± 1	3.803 ± 0.079
298.15 K, x1 = 0.9	995.934 ± 1	3.942 ± 0.082
298.15 K, x1 = 1	1006.16 ± 1	4.048 ± 0.085
303.15 K, x1 = 0.1	837.185 ± 1	2.374 ± 0.049
303.15 K, x1 = 0.196	866.114 ± 1	2.498 ± 0.052
303.15 K, x1 = 0.3	893.14 ± 1	2.642 ± 0.055
303.15 K, x1 = 0.3931	914.139 ± 1	2.776 ± 0.058
303.15 K, x1 = 0.5	935.124 ± 1	2.931 ± 0.061
303.15 K, x1 = 0.593	952.186 ± 1	3.062 ± 0.064
303.15 K, x1 = 0.7	967.138 ± 1	3.205 ± 0.067
303.15 K, x1 = 0.7931	979.432 ± 1	3.319 ± 0.069
303.15 K, x1 = 0.9	991.866 ± 1	3.433 ± 0.072
303.15 K, x1 = 1	1002.1 ± 1	3.518 ± 0.074
308.15 K, x1 = 0.1	833.229 ± 1	2.105 ± 0.044
308.15 K, x1 = 0.196	862.102 ± 1	2.219 ± 0.046
308.15 K, x1 = 0.3	889.089 ± 1	2.346 ± 0.049
308.15 K, x1 = 0.3931	910.068 ± 1	2.461 ± 0.051
308.15 K, x1 = 0.5	931.041 ± 1	2.592 ± 0.054
308.15 K, x1 = 0.593	948.102 ± 1	2.702 ± 0.056
308.15 K, x1 = 0.7	963.059 ± 1	2.821 ± 0.059
308.15 K, x1 = 0.7931	975.36 ± 1	2.917 ± 0.061
308.15 K, x1 = 0.9	987.806 ± 1	3.013 ± 0.063
308.15 K, x1 = 1	998.055 ± 1	3.088 ± 0.065
313.15 K, x1 = 0.1	829.249 ± 1	1.885 ± 0.039
313.15 K, x1 = 0.196	858.073 ± 1	1.99 ± 0.041
313.15 K, x1 = 0.3	885.026 ± 1	2.103 ± 0.044
313.15 K, x1 = 0.3931	905.989 ± 1	2.203 ± 0.046
313.15 K, x1 = 0.5	926.955 ± 1	2.316 ± 0.048
313.15 K, x1 = 0.593	944.017 ± 1	2.41 ± 0.05
313.15 K, x1 = 0.7	958.981 ± 1	2.514 ± 0.053
313.15 K, x1 = 0.7931	971.292 ± 1	2.598 ± 0.054
313.15 K, x1 = 0.9	983.751 ± 1	2.686 ± 0.056
313.15 K, x1 = 1	994.014 ± 1	2.758 ± 0.058
318.15 K, x1 = 0.1	825.24 ± 1	1.683 ± 0.035
318.15 K, x1 = 0.196	854.022 ± 1	1.777 ± 0.037
318.15 K, x1 = 0.3	880.948 ± 1	1.88 ± 0.039
318.15 K, x1 = 0.3931	901.899 ± 1	1.97 ± 0.041
318.15 K, x1 = 0.5	922.862 ± 1	2.07 ± 0.043
318.15 K, x1 = 0.593	939.982 ± 1	2.152 ± 0.045
318.15 K, x1 = 0.7	954.903 ± 1	2.239 ± 0.047
318.15 K, x1 = 0.7931	967.226 ± 1	2.304 ± 0.048
318.15 K, x1 = 0.9	979.704 ± 1	2.367 ± 0.05
318.15 K, x1 = 1	989.984 ± 1	2.411 ± 0.051
323.15 K, x1 = 0.1	821.198 ± 1	1.495 ± 0.031
323.15 K, x1 = 0.196	849.946 ± 1	1.603 ± 0.033
323.15 K, x1 = 0.3	876.851 ± 1	1.708 ± 0.036
323.15 K, x1 = 0.3931	897.795 ± 1	1.793 ± 0.037
323.15 K, x1 = 0.5	918.759 ± 1	1.882 ± 0.039
323.15 K, x1 = 0.593	935.834 ± 1	1.952 ± 0.041
323.15 K, x1 = 0.7	950.822 ± 1	2.025 ± 0.042
323.15 K, x1 = 0.7931	963.162 ± 1	2.083 ± 0.044
323.15 K, x1 = 0.9	975.66 ± 1	2.143 ± 0.045
323.15 K, x1 = 1	985.962 ± 1	2.195 ± 0.046
